One data set can be described thus: in vitro. The note with it: dog.
The test system of data set [1] is influenza A/California/07/2009 (H1N1) virus.
Data set [2] shares this test system. Description: microbe, parasite or virus in culture. The note with it: H1N1, MDCK.
Data set [3] addresses A/California/07/2009 neuraminidase (Influenza A virus (A/California/07/2009(H1N1)), UniProt C3W6G3). The data set is classed as biochemical.
For data set [4] the following is noted: 100 mg/kg/day; no reference given; cited from earlier work.

Read-outs that look alike come from different tables or passages of the source. Some results are limits rather than exact numbers.

Take `NC12CC3CC(CC(C3)C1)C2` [Amantadine]: in “in vitro”, the CC50 is more than 100 µM. Further, the “antiviral activity in cell culture (in words)” value in data set [1] is on record as “no antiviral effect”. Further, the EC50 in data set [2] was more than 100 µM.
`CCC(CC)O[C@@H]1C=C(C(=O)O)C[C@H](N)[C@H]1NC(C)=O` [Oseltamivir Carboxylate, Oseltamivir carboxylate] showed a CC50 in the data set “in vitro” of more than 100 µM. Further, in data set [3], the “neuraminidase inhibition (in words)” value is “slightly less potent than the other two compounds”. Further, a half-maximal effect in data set [1] (EC50) was put at 0.06 ± 0.1 µM.
For `NC(=O)c1ncn([C@@H]2O[C@H](CO)[C@@H](O)[C@H]2O)n1` [Ribavirin], it took 28 ± 11 µM to reach a half-maximal effect in data set [2] (EC50). Moreover, in data set [4], the “toxicity in mice (in words)” value is “begins to cause toxicity”.
Compound `CC(N)C12CC3CC(CC(C3)C1)C2` (stereo not drawn) [Rimantadine] registered a CC50 in the data set “in vitro” of 22 ± 1 µM. Further, in data set [1], the “SI (CC50/EC50)” value was 0 and the “antiviral activity in cell culture (in words)” value is on record as “no antiviral effect”. In data set [2], this compound gave an EC50 of more than 22 µM.
For the compound `CC(=O)N[C@H]1[C@H]([C@H](O)[C@H](O)CO)OC(C(=O)O)=C[C@@H]1N=C(N)N` [Zanamivir], the CC50 in the data set “in vitro” is more than 100 µM. Also, in data set [1], the EC50 worked out at 0.08 ± 0.07 µM.
As for Peramivir, the IC50 in data set [3] stood at 0.0029 ± 0.0006 µM. Moreover, in the data set on MDCK cells, the CC50 was more than 100 µM. In data set [1], the response was half-maximal at 0.04 ± 0.07 µM (EC50) and the “SI (CC50/EC50)” value is recorded as more than 2500.

Broadly, the EC50 is the midpoint of the concentration-response curve. Read a low EC50 as greater potency. As a reminder, the IC50 is the concentration that gives 50% inhibition.

These data come from PMC3465485 (Antiviral research, 2012).
